Results reported in patent EP4644396A1 (Visionpharma (Nantong) Co., Ltd, priority 2022, dated 2024).
Read-outs that look alike come from different tables or passages of the source.

What was measured:
human TLR7 = target: T1, human TLR7 (Homo sapiens, UniProt Q9NYK1); assay: HEK-Blue hTLR7 SEAP reporter gene inhibition assay; format: cell-based
T1 sequence (Q9NYK1 27-1049): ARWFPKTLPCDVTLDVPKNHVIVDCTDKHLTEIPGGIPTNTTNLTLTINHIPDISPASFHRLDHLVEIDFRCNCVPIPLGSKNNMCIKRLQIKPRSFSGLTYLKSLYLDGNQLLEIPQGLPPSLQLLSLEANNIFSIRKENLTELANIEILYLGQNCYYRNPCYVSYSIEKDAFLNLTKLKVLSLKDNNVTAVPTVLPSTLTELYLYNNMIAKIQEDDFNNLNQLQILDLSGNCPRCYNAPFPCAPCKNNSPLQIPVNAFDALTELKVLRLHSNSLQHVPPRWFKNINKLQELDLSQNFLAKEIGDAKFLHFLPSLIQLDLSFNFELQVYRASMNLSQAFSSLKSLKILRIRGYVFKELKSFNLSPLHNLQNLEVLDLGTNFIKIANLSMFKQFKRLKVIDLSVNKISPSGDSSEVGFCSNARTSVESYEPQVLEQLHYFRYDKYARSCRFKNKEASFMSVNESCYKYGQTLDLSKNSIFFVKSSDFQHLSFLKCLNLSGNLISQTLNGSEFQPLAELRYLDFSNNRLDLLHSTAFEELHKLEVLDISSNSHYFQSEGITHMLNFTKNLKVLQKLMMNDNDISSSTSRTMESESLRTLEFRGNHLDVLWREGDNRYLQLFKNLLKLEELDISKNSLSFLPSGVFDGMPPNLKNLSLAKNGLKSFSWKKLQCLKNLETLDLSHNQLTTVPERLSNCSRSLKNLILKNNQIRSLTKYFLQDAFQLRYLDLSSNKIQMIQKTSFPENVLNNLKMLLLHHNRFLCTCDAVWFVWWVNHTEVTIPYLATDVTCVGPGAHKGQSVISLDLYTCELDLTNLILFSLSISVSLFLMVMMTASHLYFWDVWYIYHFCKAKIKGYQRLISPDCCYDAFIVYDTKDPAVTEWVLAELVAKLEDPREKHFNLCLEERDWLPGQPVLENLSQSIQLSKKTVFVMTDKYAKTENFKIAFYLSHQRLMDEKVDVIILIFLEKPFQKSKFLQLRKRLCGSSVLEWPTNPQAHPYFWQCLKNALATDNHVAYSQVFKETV
Experimental: HEK-Blue cells with stable expression of human TLR7 or TLR8 were used in the evaluation of inhibitory activity of compounds in the present invention against TLR7 or TLR8, by using its ability to induce the SEAP reporting gene under the control of the fusion of IFN-β minimum promoters into five NF-κB and ap-1 binding sites, as follows: hTLR7 HEK-Blue cells (Invivogen, 80, 000 cells per well) or hTLR8 HEK-Blue cells (60, 000 cells per well) were added to a 96-well cell culture plate. A solution of the testing compounds were added to each well, with the final concentration of tested compounds in the medium ranged from 0.001 to 36 µM and the culture was incubated for 15 minutes. M5049 was used as positive controls in the testing.
Then a TLR7 ligand (Gardiquimod, purchased from MedChemExpress, with final concentration of ligand in cell culture medium kept at 10 µM) or a TLR8 ligand (purchased from MedChemExpress with final concentration in cell culture media at 10 µM) and the culture was incubated for 20 hours. According to the manufacturer's instructions, a HEK-Blue reagent Quanti-blue (Invivogen) was used to detect the SEAP levels in cell cultures. The half […] concentration or IC50 was calculated by using GraphPad Prism. […] Table 1: Activities of examples in this invention to hTLR7/8 in HEK-Blue Cells

human TLR8 = target: T2, human TLR8 (Homo sapiens, UniProt Q9NR97); assay: HEK-Blue hTLR8 SEAP reporter gene inhibition assay; format: cell-based
T2 construct: expressed in transfected cells
T2 sequence (Q9NR97 27-1041): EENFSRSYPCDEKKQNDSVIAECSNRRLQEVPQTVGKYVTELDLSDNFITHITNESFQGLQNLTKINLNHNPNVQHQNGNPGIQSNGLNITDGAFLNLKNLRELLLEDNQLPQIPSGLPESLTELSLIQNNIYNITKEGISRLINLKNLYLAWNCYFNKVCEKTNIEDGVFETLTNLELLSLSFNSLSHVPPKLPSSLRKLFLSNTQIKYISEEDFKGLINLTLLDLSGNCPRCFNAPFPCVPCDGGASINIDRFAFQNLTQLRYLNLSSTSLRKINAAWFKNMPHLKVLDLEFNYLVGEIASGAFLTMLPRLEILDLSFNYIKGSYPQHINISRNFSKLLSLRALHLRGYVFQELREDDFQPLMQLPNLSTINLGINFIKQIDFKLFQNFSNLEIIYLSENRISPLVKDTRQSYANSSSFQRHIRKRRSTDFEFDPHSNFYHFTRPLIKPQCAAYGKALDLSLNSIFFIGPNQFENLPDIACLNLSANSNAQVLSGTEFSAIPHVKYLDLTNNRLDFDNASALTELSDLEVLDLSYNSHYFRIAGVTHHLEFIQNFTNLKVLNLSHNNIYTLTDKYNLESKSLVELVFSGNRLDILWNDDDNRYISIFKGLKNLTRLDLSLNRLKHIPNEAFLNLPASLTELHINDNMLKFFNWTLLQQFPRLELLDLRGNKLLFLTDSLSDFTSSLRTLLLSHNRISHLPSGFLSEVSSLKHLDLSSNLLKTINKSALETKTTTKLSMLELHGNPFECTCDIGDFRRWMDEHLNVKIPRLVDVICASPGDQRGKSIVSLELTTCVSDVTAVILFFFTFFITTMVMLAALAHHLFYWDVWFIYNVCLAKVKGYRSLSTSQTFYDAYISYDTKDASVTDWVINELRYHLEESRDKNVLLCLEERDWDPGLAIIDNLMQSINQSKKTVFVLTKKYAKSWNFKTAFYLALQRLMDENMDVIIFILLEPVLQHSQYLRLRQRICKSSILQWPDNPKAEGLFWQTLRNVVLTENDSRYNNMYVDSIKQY
Summary of the method: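 Compounds (final 0.001–36 µM) were added 15 min before stimulation with 10 µM TLR7 agonist Gardiquimod or 10 µM TLR8 ligand for 20 h. Read-out: SEAP from NF-κB/AP-1 reporter in hTLR7 (80,000 cells/well) or hTLR8 (60,000 cells/well) HEK-Blue cells, via Quanti-Blue; IC50 derived.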

[1] = hTLR7 HEK-Blue cells, TLR7 ligand Gardiquimod 10 µM, 20 hours, SEAP by Quanti-blue, class symbols, read-out: HEK-Blue hTLR7 IC50
[2] = hTLR8 HEK-Blue cells, TLR8 ligand 10 µM, 20 hours, SEAP by Quanti-blue, class symbols, read-out: HEK-Blue hTLR8 IC50

C[C@@H]1CN(c2ccc(C#N)n3ncc(F)c23)Cc2c3c(nn21)CC(N(C)C)CC3 (stereo partly drawn) [Example I-27, 4-((4R)-8-(dimethylamino)-4-methyl-3,4,7,8,9,10-hexahydropyrazino[1,2-b]indazol-2(1H)-yl)-3-fluoropyrazolo[1,5-a]pyridine-7-carbonitrile]
IC50 (human TLR7; [1]): > 0.05 µM | IC50 (human TLR8; [2]): < 0.1 µM

C[C@@H]1CN(c2ccc(C#N)n3ncc(F)c23)Cc2c3c(nn21)CN(Cc1cn[nH]c1)CC3 [Example I-28, (R)-4-(8-((1H-pyrazol-4-yl)methyl)-4-methyl-3,4,7,8,9,10-hexahydropyrido[3',4':3,4]pyrazolo[1,5-a]pyrazin-2(1H)-yl)-3-fluoropyrazolo[1,5-a]pyridine-7-carbonitrile]
IC50 (human TLR7; [1]): > 0.05 µM | IC50 (human TLR8; [2]): < 0.1 µM

CC1Cc2c(nn3c2CN(c2ccc(C#N)n4ncc(F)c24)C[C@H]3C)CN1 (stereo partly drawn) [Example I-30, 4-((4R)-4,9-dimethyl-3,4,7,8,9,10-hexahydropyrido[3',4':3,4]pyrazolo[1,5-a]pyrazin-2(1H)-yl)-3-fluoropyrazolo[1,5-a]pyridine-7-carbonitrile]
IC50 (human TLR7; [1]): < 0.05 µM | IC50 (human TLR8; [2]): < 0.1 µM

C[C@@H]1CN(c2ccc(C#N)n3ncc(F)c23)Cc2c3c(nn21)CN[C@@H](C)C3 [Example I-30a]
IC50 (human TLR7; [1]): < 0.05 µM | IC50 (human TLR8; [2]): < 0.1 µM

C[C@@H]1Cc2c(nn3c2CN(c2ccc(C#N)n4ncc(F)c24)C[C@H]3C)CN1 [Example I-30b]
IC50 (human TLR7; [1]): < 0.05 µM | IC50 (human TLR8; [2]): < 0.1 µM

C[C@@H]1CN(c2ccc(C#N)n3ncc(F)c23)Cc2c3c(nn21)C(CO)NCC3 (stereo partly drawn) [Example I-33, 3-Fluoro-4-((4R)-7-(hydroxymethyl)-4-methyl-3,4,7,8,9,10-hexahydropyrido[3',4':3,4]pyrazolo[1,5-a]pyrazin-2(1H)-yl)pyrazolo[1,5-a]pyridine-7-carbonitrile]
IC50 (human TLR7; [1]): > 0.05 µM | IC50 (human TLR8; [2]): < 0.1 µM

C[C@@H]1CN(c2ccc(C#N)n3ncc(F)c23)Cc2c3c(nn21)CC(N1CCC(O)C1)CC3 (stereo partly drawn) [Example I-34, 3-Fluoro-4-((4R)-8-(3-hydroxypyrrolidin-1-yl)-4-methyl-3,4,7,8,9,10-hexahydropyrazino[1,2-b]indazol-2(1H)-yl)pyrazolo[1,5-a]pyridine-7-carbonitrile]
IC50 (human TLR7; [1]): < 0.05 µM | IC50 (human TLR8; [2]): < 0.1 µM

C[C@@H]1NCCc2c1nn1c2CN(c2ccc(C#N)n3ncc(F)c23)C[C@H]1C [Example I-39, 4-((4R,7S)-4,7-dimethyl-3,4,7,8,9,10-hexahydropyrido[3',4':3,4]pyrazolo[1,5-a]pyrazin-2(1H)-yl)-3-fluoropyrazolo[1,5-a]pyridine-7-carbonitrile]
IC50 (human TLR7; [1]): < 0.05 µM | IC50 (human TLR8; [2]): < 0.1 µM

C[C@@H]1CN(c2ccc(C#N)n3ncc(F)c23)Cc2c3c(nn21)CNCC3CO (stereo partly drawn) [Example I-40, 3-Fluoro-4-((4R)-10-(hydroxymethyl)-4-methyl-3,4,7,8,9,10-hexahydropyrido [3',4':3,4]pyrazolo[1,5-a]pyrazin-2(1H)-yl)pyrazolo[1,5-a]pyridine-7-carbonitrile]
IC50 (human TLR7; [1]): > 0.05 µM | IC50 (human TLR8; [2]): < 0.1 µM

C[C@@H]1CN(c2ccc(C#N)n3ncc(F)c23)Cc2c3c(nn21)CN[C@H](CO)C3 [Example I-43, 3-fFuoro-4-((4R,9S)-9-(hydroxymethyl)-4-methyl-3,4,7,8,9,10-hexahydropyrido [3',4':3,4]pyrazolo[1,5-a]pyrazin-2(1H)-yl)pyrazolo[1,5-a]pyridine-7-carbonitrile]
IC50 (human TLR7; HEK-Blue hTLR7 IC50 (µM)): < 0.05 µM | IC50 (human TLR8; HEK-Blue hTLR8 IC50 (µM)): < 0.1 µM

C[C@@H]1CN(c2ccc(C#N)n3ncc(F)c23)Cc2c3c(nn21)C(C)(C)NCC3 [Example I-45, (R)-3-Fluoro-4-(4,7,7-trimethyl-3,4,7,8,9,10-hexahydropyrido[3',4':3,4]pyrazolo[1,5-a]pyrazin-2(1H)-yl)pyrazolo[1,5-a]pyridine-7-carbonitrile]
IC50 (human TLR7; [1]): < 0.05 µM | IC50 (human TLR8; [2]): < 0.1 µM

C[C@@H]1CN(c2ccc(C#N)n3ncc(F)c23)Cc2c3c(nn21)C1CCC(C3)N1 (stereo partly drawn) [Example I-52, 3-Fluoro-4-((4R)-4-methyl-1,3,4,7,8,9,10,11-octahydro-2H-7,10-epiminocyclohepta [3,4]pyrazolo[1,5-a]pyrazin-2-yl)pyrazolo[1,5-a]pyridine-7-carbonitrile]
IC50 (human TLR7; [1]): < 0.05 µM | IC50 (human TLR8; [2]): < 0.1 µM

C[C@@H]1Cc2c(nn3c2CN(c2ccc(C#N)n4ncc(F)c24)C[C@H]3C)[C@H](C)N1 [Example I-59, 3-Fluoro-4-((4R,7S,9R)-4,7,9-trimethyl-3,4,7,8,9,10-hexahydropyrido[3',4':3,4]pyrazolo[1,5-a]pyrazin-2(1H)-yl)pyrazolo[1,5-a]pyridine-7-carbonitrile]
IC50 (human TLR7; [1]): < 0.05 µM | IC50 (human TLR8; [2]): > 0.1 µM

CC(C)C1Cc2c(nn3c2CN(c2ccc(C#N)n4ncc(F)c24)C[C@H]3C)CN1 (stereo partly drawn) [Example I-60, 3-Fluoro-4-((4R)-9-isopropyl-4-methyl-3,4,7,8,9,10-hexahydropyrido[3',4':3,4]pyrazolo[1,5-a]pyrazin-2(1H)-yl)pyrazolo[1,5-a]pyridine-7-carbonitrile]
IC50 (human TLR7; [1]): < 0.05 µM | IC50 (human TLR8; [2]): > 0.1 µM

C[C@@H]1CN(c2ccc(C#N)n3ncc(F)c23)Cc2c3c(nn21)CNC(CCOC(C)(C)C)C3 (stereo partly drawn) [Example I-61, 4-((4R)-9-(2-(tert-butoxy)ethyl)-4-methyl-3,4,7,8,9,10-hexahydropyridine[3',4':3,4]pyrazole[1,5-a]pyrazine-2(1H)-yl)-3-fluoropyrazole[1,5-a]pyridine-7-caronitrile]
IC50 (human TLR7; HEK-Blue hTLR7 IC50 (µM)): < 0.05 µM | IC50 (human TLR8; HEK-Blue hTLR8 IC50 (µM)): > 0.1 µM

C[C@@H]1CN(c2ccc(C#N)n3ncc(F)c23)Cc2c3c(nn21)CNC(c1ccn[nH]1)C3 (stereo partly drawn) [Example I-68, 3-Fluoro-4-((4R)-4-methyl-9-(1H-pyrazol-5-yl)-3,4,7,8,9,10-hexahydropyrido[3',4':3,4]pyrazolo[1,5-a]pyrazin-2(1H)-yl)pyrazolo[1,5-a]pyridine-7-carbonitrile]
IC50 (human TLR7; [1]): > 0.05 µM | IC50 (human TLR8; [2]): < 0.1 µM
